According to patent US10272055B2, “Therapeutic compounds and methods” (Regents of the University of Minnesota, priority 2014, dated 2019):
“And” between values parts separate entries of the source, which are not always exact repeats. Equal entries are not always repeated. “Also recorded” adds a separate entry of the source.

Tests used:
[1] = test system: MCF-7 cell line; assay: MTT growth assay, MCF-7 line; type: cell-based
Procedure: The growth of the MCF-7 line was measured by MTT assay at 24 hours. Cells were plated in complete media in the presence of serum (10% FBS) and cultured at 37° C. with 5% CO2 and treated with the biguanide or DMSO vehicle. Growth was measured at 24 hours by MTT assay.
Cells were plated in complete media in the presence of serum (10% FBS) and cultured at 37° C. with 5% CO2 and treated with HBB or DMSO vehicle. Growth was measured at 24 hours by MTT assay.

[2] = HBB concentration after ip administration, MCF-7 model; design: species or system mice; conditions: nude, mouse, in vivo, intraperitoneal, 4 mg/kg/day ip, read-out: Concentration of HBB 1 hour following ip administration
Procedure: Concentration of HBB 1 hour following ip administration was 0.527 uM as measured in the MCF-7 model. HBB was administered ip at 4 mg/kg/day in both models, which is the MTD for that dose, route and schedule.

[3] = test system: MCF7; assay: ROS production, DCFDA flow cytometry, MCF7; type: cell-based; conditions: MCF7, 20 uM HBB
Procedure: (§1) FIG. 33 illustrates that HBB induces reactive oxygen species (ROS) production in MCF7 and MDA-MB-231 lines. Cells in log phase growth in complete media were trypsinized and resuspended in complete media containing 20 uM DCFDA. After incubation at 37° C. for 30 minutes, cells were treated with 20 uM HBB or DMSO for 2.5 hours and analyzed by flow cytometer, monitoring fluorescence at 525 nm. Results are represented as histograms of cell count vs fluorescence intensity.

[4] = test system: STAT3; assay: STAT3 phosphorylation Western blot in MCF7; type: cell-based
Procedure: Western blotting analysis was performed (C=control, M=metform and H=HBB).
Total protein was extracted and analyzed by Western-blotting with GAPDH as an internal control.

[5] = test system: CD31; assay: Angiogenesis by CD31 staining, MCF-7 xenograft tumors; type: in vivo, mice; conditions: MCF-7 model, HBB 4 mg/kg/day ip vs PBS
Procedure: (§2) Xenogaft tumors from the MCF-7 and MDA-MB-231 models were tested for inhibition of angiogenesis by HBB using CD31 staining.
(§3) The samples were cryosectioned at 6 um and fixed with chilled 100% acetone for 10 minutes. Samples were blocked with 3% donkey serum in PBS for 30 minutes at 37 C.
(§4) The antibody used to stain CD-31 was from BD Pharmingen PE Rat anti Mouse CD31, catalog number 553373. It was used at a dilution of 1:50 in blocking buffer for 1 hour at 37 C.
(§5) The samples were then stained for 10 minutes with DAPI at a concentration of 1:2000, from Life Technologies, catalog number D1306.
(§6) Each sample was imaged in 4-5 areas. There were 3 samples per condition, PBS vs HBB.

[6] = test system: CD31; assay: Angiogenesis by CD31 staining, MDA-MB-231 xenograft tumors; type: in vivo, mice; conditions: MDA-MB-231 model, HBB 4 mg/kg/day ip vs PBS
Procedure: as §2, §3, §4, §5, §6

[7] = test system: MCF7 line; assay: 14,15-EET protection against biguanide growth inhibition, MTT, MCF7; type: cell-based; conditions: MCF-7, exogenous (±)-14,15-EET (1 uM)
Procedure: Cells were plated in complete media in the presence of serum (10% FBS) and cultured at 37° C. with 5% CO2 and treated with biguanides for 24 hours in the presence or absence of 1 uM 14,15-EET. Growth was then measured at 24 hour by MTT assay.

[8] = test system: MDA-MB-231; assay: Cell cycle analysis by flow cytometry, MDA-MB-231; type: cell-based; conditions: MDA-MB-231, HBB 20 uM, 6 hours
Procedure: Cells in log phase growth treated with HBB (20 uM) or DMSO for 6 hours were trypsinized and fixed in 70% ethanol at 4° C. overnight. The cells were washed with cold PBS and resuspended in Nicoletti buffer (50 μg/ml propidium iodide, 0.1% Triton X-100, 0.1% sodium citrate, pH 7.4, and 1 mg/ml RNase). The samples were then analyzed by flow cytometry (BD Biosciences), and data were analyzed using FlowJo software (Tree Star). Representative profile are shown.

[9] = biological target: CYP3A4 nanodiscs (Homo sapiens, UniProt P08684); assay: CYP3A4 nanodisc spin shift titration; type: binding; conditions: vs metformin
CYP3A4 nanodiscs, sequence (P08684 whole entry): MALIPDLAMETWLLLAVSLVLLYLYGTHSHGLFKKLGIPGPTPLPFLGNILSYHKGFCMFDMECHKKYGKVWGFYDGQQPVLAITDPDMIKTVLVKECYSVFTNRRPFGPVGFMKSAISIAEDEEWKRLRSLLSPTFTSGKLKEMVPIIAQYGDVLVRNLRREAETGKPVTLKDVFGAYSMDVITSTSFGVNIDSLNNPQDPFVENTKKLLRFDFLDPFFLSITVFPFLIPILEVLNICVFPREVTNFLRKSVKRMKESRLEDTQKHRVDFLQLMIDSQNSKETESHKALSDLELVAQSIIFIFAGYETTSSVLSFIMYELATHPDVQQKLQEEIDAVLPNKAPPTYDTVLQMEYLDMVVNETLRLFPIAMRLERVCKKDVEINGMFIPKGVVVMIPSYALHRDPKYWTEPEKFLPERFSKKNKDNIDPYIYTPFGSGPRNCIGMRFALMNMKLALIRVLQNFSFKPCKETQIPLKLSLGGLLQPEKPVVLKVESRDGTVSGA

[10] = biological target: CYP3A4D3-24 (Homo sapiens, UniProt P08684); assay: Spectral binding (spin shift) to CYP3A4D3-24; conditions: vs metformin
CYP3A4D3-24, sequence (P08684 with tags, fused parts or gaps): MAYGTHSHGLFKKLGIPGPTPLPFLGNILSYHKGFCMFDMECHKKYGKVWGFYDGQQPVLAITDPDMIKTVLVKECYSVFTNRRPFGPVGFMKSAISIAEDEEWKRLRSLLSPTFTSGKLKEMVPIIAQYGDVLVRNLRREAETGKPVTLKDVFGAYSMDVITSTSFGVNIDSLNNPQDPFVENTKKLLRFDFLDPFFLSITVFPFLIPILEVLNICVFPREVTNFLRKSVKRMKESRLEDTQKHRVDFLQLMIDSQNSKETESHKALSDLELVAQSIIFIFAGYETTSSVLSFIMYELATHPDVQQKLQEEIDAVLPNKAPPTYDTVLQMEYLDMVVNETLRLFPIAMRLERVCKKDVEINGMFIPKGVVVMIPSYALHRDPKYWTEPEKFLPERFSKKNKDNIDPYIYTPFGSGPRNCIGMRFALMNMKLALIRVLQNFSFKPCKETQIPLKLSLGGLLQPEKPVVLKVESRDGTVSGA

[11] = test system: AMPK; assay: AMPK phosphorylation Western blot in MCF7; type: cell-based
Procedure: Western blotting analysis was performed in triplicate.
Cells were plated in complete media in the presence of serum (10% FBS) and cultured at 37° C. with 5% CO2 and treated with biguanides for 6 hours before harvesting. Total protein was extracted and analyzed by Western-blotting with GAPDH as an internal control.
Cells were plated in complete media in the presence of serum (10% FBS) and cultured at 37° C. with 5% CO2 and treated with 14,15-EET or EtOH control for 24 hours before harvesting. Total protein was extracted and analyzed by Western-blotting with GAPDH as an internal control.

[12] = test system: MDA-MB-231 line; assay: 14,15-EET protection against biguanide growth inhibition, MTT, MDA-MB-231; type: cell-based; conditions: MDA-MB-231, 1 uM 14,15-EET, 24 hours
Procedure: Cells were plated in complete media in the presence of serum (10% FBS) and cultured at 37° C. with 5% CO2 and treated with HBB for 24 hours in the presence and absence of 1 uM 14,15-EET. Growth was then measured at 24 hours by MTT assay.
Results are expressed as mean±standard deviation (n=8).

[13] = test system: MDA-MB-231; assay: MTT growth assay, MDA-MB-231 line; type: cell-based; conditions: MTT assay at 24 hours, 10% FBS
Procedure: FIG. 30 illustrates HBB inhibits proliferation of MCF7 and MDA-MB-231 lines. Cells were plated in complete media in the presence of serum (10% FBS) and cultured at 37° C. with 5% CO2 and treated with HBB or DMSO vehicle. Growth was measured at 24 hours by MTT assay. Results were converted to percent growth of control and represented as mean±S.E. (n=8).

[14] = Tolerability in xenograft mice (MTD, weight); conditions: mouse, in vivo
Description: […]. (* indicates P<0.05). Error bars are SEM. […] The dose limiting toxicity was weight loss. At the MTD there was a well-tolerated 4% reduction of weight at 42 days (P<0.0001; data not shown). […].

[15] = test system: MDA-MB-231; assay: ROS production, DCFDA flow cytometry, MDA-MB-231; type: cell-based; conditions: MDA-MB-231, 20 uM HBB
Procedure: as §1

Question: Which IC50 ([1]; MTT assay at 24 hours, 10% FBS, read-out: IC50, MCF-7 growth) does the source give for `CCCCCCNC(=N)NC(=N)NCc1ccccc1` [HBB, N1-hexyl-N5-benzyl biguanide] here?
Answer: ~20 µM and 20 µM

Question: What about the “fold more potent than metformin, MCF-7 growth” value ([1]; vs metformin) of the same compound?
Answer: ~250 fold

Question: And the concentration at 1 h [2]?
Answer: 527 nM

Question: What about the “ROS production relative to DMSO” value [3] of the same compound?
Answer: induced significant ROS production

Question: And the “STAT3 phosphorylation relative to control” value ([4]; MCF7, 6 hours, HBB 20 uM, metformin 10 uM)?
Answer: decreased phosphorylation of STAT3

Question: And the “fold more potent than metformin, inhibition of Stat3 phosphorylation” value ([4]; vs metformin)?
Answer: ~50 fold

Question: What about the “angiogenesis (CD31 staining)” value [5] of the same compound?
Answer: inhibited angiogenesis in both models

Question: And the “angiogenesis (CD31 staining)” value [6]?
Answer: inhibited angiogenesis in both models

Question: What about the “rescue of MCF-7 growth by 14,15-EET in the presence of the biguanide” value [7] of the same compound?
Answer: partially restores growth; also recorded: partial rescue

Question: What about the cell cycle arrest [8] of the same compound?
Answer: induces G0/G1 and G2/M cell cycle arrest

Question: And the “fold more potent than metformin, CYP3A4 nanodisc spin shift” value [9]?
Answer: ~4 fold

Question: And the “fold more potent than metformin, delta 3-24 CYP3A4 spin shift” value [10]?
Answer: ~12 fold

Question: What about the “AMPK phosphorylation relative to control” value ([11]; MCF7, 6 hours, metformin, buformin, phenformin 1 mM, HBB 20 uM) of the same compound?
Answer: more potently activates AMPK; also recorded: increased phosphorylation of AMPK

Question: And the “fold more potent than metformin, activation of AMPK phosphorylation” value ([11]; vs metformin)?
Answer: ~50 fold

Question: What about the “rescue of MDA-MB-231 growth by 14,15-EET in the presence of the biguanide” value [12] of the same compound?
Answer: no protection

Question: What about the IC50 [13] of the same compound?
Answer: 22.5 µM

Question: And the dose limiting toxicity [14]?
Answer: weight loss

Question: What about the MTD at 42 days ([14]; nude, ip daily, read-out: maximum tolerated dose (MTD)) of the same compound?
Answer: 4 mg/kg

Question: And the “ROS production relative to DMSO” value [15]?
Answer: induced significant ROS production
